The source of these data is ChEMBL document CHEMBL1129382, “Synthesis of chiral 1-(2'-amino-2'-carboxyethyl)-1,4-dihydro-6,7-quinoxaline-2,3-diones: alpha-amino-3-hydroxy-5-methyl-4-isoxazolepropionate receptor agonists and antagonists” (J Med Chem, 1996).

The structures appear in SMILES notation.

The target in assay [1] is Glutamate receptor ionotropic, kainate (Rattus norvegicus) (UniProt P22756+Q01812+P42260+P42264+Q63273). The experiment in a line: Displacement of [3H]- Kainate from Ionotropic glutamate receptor kainate of rat brain homogenates. It is filed as tissue-based. Further details: concentration or dose not given beside the values. As to conditions: concentration not given here. (In general: In a radioligand displacement assay an active substance lowers the binding of a labelled ligand.)

Assay [2] concerns the target Glutamate receptor ionotropic, AMPA (Rattus norvegicus) (UniProt P19491+P19492+P19493+P19490). As to the kind of experiment: Displacement of [3H]- AMPA from Ionotropic glutamate receptor of rat brain. Further details: concentration or dose not given beside the values. Conditions: concentration not given here.
The target of assay [3] is Glutamate receptor ionotropic, kainate. The experiment in a line: Inhibition of [3H]- Kainate binding to Ionotropic glutamate receptor kainate in brain homogenates. It is filed as tissue-based, Rattus norvegicus.
Assay [4] concerns the target Glutamate receptor ionotropic, AMPA (Rattus norvegicus, UniProt P19490+P19491+P19492+P19493). As to the kind of experiment: Compound (100 uM) was evaluated for inhibition of Ionotropic glutamate receptor AMPA by using [3H]- AMPA. It is filed as protein-complex assay.
For the next assay, the species on record is Rattus norvegicus. As to the kind of experiment: Functional antagonist activity was determined by the ability to inhibit AMPA stimulated [3H]norepinephrine release from rat hippocampal slices. Conditions: Hippocampus.

Broadly, the inhibition is the percentage by which the read-out fell short of the control. In general, IC50 refers to the concentration that inhibits the measured activity by half. What is called EC50 is the concentration needed to bring the measured effect to its halfway point.

`N[C@@H]1COC1=O`: the inhibition in assay [1] is 4%; in assay [2] it was 0%.
In the case of `N[C@@H](Cn1c(=O)c(=O)[nH]c2ccccc21)C(=O)O`, the inhibition in assay [1] is 27%; in assay [2] it was 95%. In assay [3], the IC50 turned out to be 0.23 µM.
As to `N[C@H](Cn1c(=O)c(=O)[nH]c2ccccc21)C(=O)O` [listing 1 of 3 here], the inhibition in assay [1] is 5%; in assay [2] it was 77%.
The like results for `N[C@H]1COC1=O` were, in that order, 5% and 11%.
Consider `N[C@H](Cn1c(=O)c(=O)[nH]c2ccccc21)C(=O)O` [listing 2 of 3 here], for which, in assay [3], the IC50 was determined as 38 µM.
With `Cc1cc(N)c(NC[C@H](N)C(=O)O)cc1C`, the inhibition stood at 7% in assay [1] and 15% in assay [2].
Regarding `Cc1cc(N)c(NC(=O)[C@@H](CO)NC(=O)OC(C)(C)C)cc1C`, the IC50 in assay [4] amounted to 4 µM; in assay [3] it was 11 µM.
In the case of `O=[N+]([O-])c1cc2nc(O)c(O)nc2cc1[N+](=O)[O-]`, the inhibition in assay [1] stood at 81%; in assay [2], 99%.
For `Nc1ccccc1NC[C@@H](N)C(=O)O`, the inhibition in assay [1] and in assay [2] was 0% each time.
`Cc1cc2[nH]c(=O)c(=O)n(C[C@@H](N)C(=O)O)c2cc1C`: the inhibition is 27% in assay [1] and 62% in assay [2]. In assay [3], this compound came in with an IC50 of 22 µM. In the assay listed under Rattus norvegicus, this compound returned an EC50 of 300 µM.
On to `Nc1ccccc1NC[C@H](N)C(=O)O`, for which the inhibition worked out at 14% in assay [1] and 70% in assay [2].
With `Cc1cc2[nH]c(=O)n(C(=O)[C@@H](N)CO)c2cc1C`, the figures for the inhibition in assay [1] and in assay [2] were 13% and 21%, respectively.
Turning to `Cc1cc2[nH]c(=O)c(=O)n(C(=O)[C@@H](CO)NC(=O)OC(C)(C)C)c2cc1C`, the values for the IC50 in assay [4] and in assay [3] were 12 µM and 11 µM, respectively.
Take `Cc1cc2[nH]c(=O)c(=O)n(C(=O)[C@@H](N)CO)c2cc1C`: the inhibition in assay [1] was found to be 16%; in assay [2], 24%.
As for `Cc1cc2[nH]c(=O)c(=O)n(C[C@H](N)C(=O)O)c2cc1C`, the results for the inhibition in assay [1] and in assay [2] were 38% and 66%, respectively. This compound also returned an IC50 in assay [3] of 51 µM. Further, in the assay listed under Rattus norvegicus, the response was half-maximal at 290 µM (EC50).
The compound `O=c1[nH]c2cc([N+](=O)[O-])c([N+](=O)[O-])cc2[nH]c1=O` [DNQX] displayed an IC50 in assay [3] of 0.74 µM.
On to `Cc1cc2[nH]c(=O)c(=O)n(C[C@H](CO)NC(=O)OC(C)(C)C)c2cc1C`, for which the results for the IC50 in assay [4] and in assay [3] were 47 µM and 5 µM, respectively.
Regarding `Cc1cc2[nH]c(=O)c(=O)n(C(=O)[C@H](N)CO)c2cc1C`, the inhibition was determined as 15% in assay [1] and 14% in assay [2].
In turn, `N[C@H](Cn1c(=O)c(=O)[nH]c2ccccc21)C(=O)O` [listing 3 of 3 here] showed an IC50 in assay [3] of 0.69 µM.
Take `Cc1cc(N)c(NC[C@@H](N)C(=O)O)cc1C`: the inhibition in assay [1] was 0%; in assay [2], 15%.
